Source: PubChem BioAssay AID248 (DTP/NCI, 2004)
Several values for one entry are separate records, joined by “and”; a condition that tells them apart may be missing. Equal entries are not always repeated. Inconclusive results and toxic doses are left out. Rule as the data show it: active = T/C of 150% or more; inactive = T/C below 125%.

Test system: L1210 leukemia ip in BDF1 mice, survival T/C
Assay: NCI In Vivo Anticancer Drug Screen. Data for tumor model L1210 Leukemia (intraperitoneal) in B6D2F1 (BDF1) mice
Conditions: endpoint: mean survival time, higher = longer survival
Procedure, shortened: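 Survival endpoint. Drug-treated group vs vehicle group, expressed as T divided by C. Tumor passaged by transplantation.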

[1] = dose: 12.5 mg/kg/injection, schedule: Q01DX009 (ip), vehicle: Klucel (hydroxypropylcellulose) (HPC)
[2] = dose: 25.0 mg/kg/injection, schedule: Q01DX009 (ip), vehicle: Klucel (hydroxypropylcellulose) (HPC)
[3] = dose: 50.0 mg/kg/injection, schedule: Q01DX009 (ip), vehicle: Klucel (hydroxypropylcellulose) (HPC)
[4] = dose: 100.0 mg/kg/injection, schedule: Q04DX003 (ip), vehicle: Klucel (hydroxypropylcellulose) (HPC)
[5] = dose: 100.0 mg/kg/injection, schedule: Q01DX001 (ip), vehicle: saline
[6] = dose: 200.0 mg/kg/injection, schedule: Q01DX001 (ip), vehicle: saline
[7] = dose: 400.0 mg/kg/injection, schedule: Q01DX001 (ip), vehicle: saline
[8] = dose: 100.0 mg/kg/injection, schedule: Q04DX002 (ip), vehicle: Klucel (hydroxypropylcellulose) (HPC)
[9] = dose: 200.0 mg/kg/injection, schedule: Q04DX002 (ip), vehicle: Klucel (hydroxypropylcellulose) (HPC)
[10] = dose: 100.0 mg/kg/injection, schedule: Q04DX003 (ip), vehicle: saline
[11] = dose: 200.0 mg/kg/injection, schedule: Q04DX003 (ip), vehicle: saline
[12] = dose: 400.0 mg/kg/injection, schedule: Q04DX003 (ip), vehicle: saline
[13] = dose: 100.0 mg/kg/injection, schedule: Q01DX009 (ip), vehicle: Klucel (hydroxypropylcellulose) (HPC)
[14] = dose: 200.0 mg/kg/injection, schedule: Q01DX009 (ip), vehicle: Klucel (hydroxypropylcellulose) (HPC)
[15] = dose: 400.0 mg/kg/injection, schedule: Q01DX009 (ip), vehicle: Klucel (hydroxypropylcellulose) (HPC)

Measured: T/C

CN(C)CCCOc1c2ccccc2cc2ccccc12
inactive: dose: 1.0 mg/kg/injection, schedule: Q01DX015 (ip), vehicle: carboxymethylcellulose (CMC) 92 % of control | dose: 2.0 mg/kg/injection, schedule: Q01DX015 (ip), vehicle: carboxymethylcellulose (CMC) 92 % of control | dose: 4.0 mg/kg/injection, schedule: Q01DX015 (ip), vehicle: carboxymethylcellulose (CMC) 92 % of control | dose: 8.0 mg/kg/injection, schedule: Q01DX015 (ip), vehicle: carboxymethylcellulose (CMC) 104 % of control and 90 % of control | dose: 16.0 mg/kg/injection, schedule: Q01DX015 (ip), vehicle: carboxymethylcellulose (CMC) 98 % of control

Cc1nc(Cl)c(CO)c(CO)c1O
inactive: [1] 95 % of control | [2] 98 % of control | dose: 25.0 mg/kg/injection, schedule: Q04DX003 (ip), vehicle: Klucel (hydroxypropylcellulose) (HPC) 94 % of control | [3] 92 % of control | dose: 50.0 mg/kg/injection, schedule: Q04DX003 (ip), vehicle: Klucel (hydroxypropylcellulose) (HPC) 90 % of control | [4] 106 % of control

O=C1OCC2Cc3cc4c(cc3C(c3ccc5c(c3)OCO5)=C12)OCO4 (stereo not given)
inactive: [5] 98 % of control | [6] 109 % of control | [7] 95 % of control

CC/C(=C\c1ccc2ccccc2c1)[N+](=O)[O-]
inactive: dose: 75.0 mg/kg/injection, schedule: Q01DX001 (ip), vehicle: saline 97 % of control | dose: 150.0 mg/kg/injection, schedule: Q01DX001 (ip), vehicle: saline 103 % of control

Cn1nccc2c(=O)n(C)c(=O)nc1-2
inactive: [8] 97 % of control | [9] 95 % of control

CCCCCCc1cc2ccccc2cc1CCCC
inactive: [5] 102 % of control | [6] 100 % of control | [7] 97 % of control

O=C1N=C(c2ccccc2)C(c2ccccc2)=N1
inactive: [10] 96 % of control | [11] 90 % of control | [12] 96 % of control

CC#CC(C)=O
inactive: dose: 25.0 mg/kg/injection, schedule: Q04DX003 (ip), vehicle: saline 100 % of control | dose: 50.0 mg/kg/injection, schedule: Q04DX003 (ip), vehicle: saline 92 % of control | [10] 100 % of control

C/C(=C/C1CC(=O)OC1=O)CC(C)(C)C (stereo not given)
inactive: dose: 222.0 mg/kg/injection, schedule: Q01DX Z (ip), vehicle: methylcellulose (MC) 108 % of control | dose: 333.0 mg/kg/injection, schedule: Q01DX Z (ip), vehicle: methylcellulose (MC) 92 % of control

CC(=O)OC1CCCC(OCC(C)C)O1 (stereo not given)
inactive: dose: 40.0 mg/kg/injection, schedule: Q01DX Z (ip), vehicle: saline 94 % of control | dose: 60.0 mg/kg/injection, schedule: Q01DX Z (ip), vehicle: saline 92 % of control

COc1ccc(-n2c(=O)c(N=Nc3ccc(Cl)cc3)c(O)n(-c3ccc(I)cc3)c2=S)cc1
inactive: dose: 37.5 mg/kg/injection, schedule: Q01DX001 (ip), vehicle: Klucel (hydroxypropylcellulose) (HPC) 97 % of control | dose: 75.0 mg/kg/injection, schedule: Q01DX001 (ip), vehicle: Klucel (hydroxypropylcellulose) (HPC) 90 % of control | dose: 150.0 mg/kg/injection, schedule: Q01DX001 (ip), vehicle: Klucel (hydroxypropylcellulose) (HPC) 97 % of control

COc1ccc(CNCCO)cc1
inactive: dose: 100.0 mg/kg/injection, schedule: Q01DX009 (ip), vehicle: saline 96 % of control | [10] 96 % of control | dose: 200.0 mg/kg/injection, schedule: Q01DX009 (ip), vehicle: saline 91 % of control | [11] 98 % of control | dose: 400.0 mg/kg/injection, schedule: Q01DX009 (ip), vehicle: saline 97 % of control | [12] 93 % of control

O=C(/C=C/c1ccc(O)cc1)c1ccccc1
inactive: dose: 100.0 mg/kg/injection, schedule: Q01DX009 (ip), vehicle: saline with Tween-80 102 % of control | dose: 100.0 mg/kg/injection, schedule: Q04DX003 (ip), vehicle: saline with Tween-80 109 % of control | dose: 200.0 mg/kg/injection, schedule: Q01DX009 (ip), vehicle: saline with Tween-80 108 % of control | dose: 200.0 mg/kg/injection, schedule: Q04DX003 (ip), vehicle: saline with Tween-80 102 % of control | dose: 400.0 mg/kg/injection, schedule: Q01DX009 (ip), vehicle: saline with Tween-80 102 % of control | dose: 400.0 mg/kg/injection, schedule: Q04DX003 (ip), vehicle: saline with Tween-80 98 % of control

O=C(Nc1ccccn1)c1ccccc1
inactive: dose: 100.0 mg/kg/injection, schedule: Q04DX002 (ip), vehicle: saline with Tween-80 99 % of control

CC(=O)N1Cc2ccc(/C=C(/C#N)C(N)=O)n2Cc2cc3c(cc21)OCO3
inactive: dose: 25.0 mg/kg/injection, schedule: Q04DX002 (ip), vehicle: Klucel (hydroxypropylcellulose) (HPC) 91 % of control | dose: 50.0 mg/kg/injection, schedule: Q04DX002 (ip), vehicle: Klucel (hydroxypropylcellulose) (HPC) 98 % of control | [8] 91 % of control

O=C(c1ccc(F)cc1)c1ccc2ccccc2c1C(=O)O
inactive: [8] 89 % of control | [9] 92 % of control | dose: 400.0 mg/kg/injection, schedule: Q04DX002 (ip), vehicle: Klucel (hydroxypropylcellulose) (HPC) 99 % of control

S=C(N/N=C1\CCCCC1c1ccccc1)Nc1ccccc1 (stereo not given)
inactive: [13] 95 % of control | [14] 90 % of control | [15] 104 % of control

Nc1cc2c3ccccc3c(F)cc2c2ccccc12
inactive: [13] 106 % of control | [4] 96 % of control | [14] 104 % of control | dose: 200.0 mg/kg/injection, schedule: Q04DX003 (ip), vehicle: Klucel (hydroxypropylcellulose) (HPC) 93 % of control | [15] 101 % of control | dose: 400.0 mg/kg/injection, schedule: Q04DX003 (ip), vehicle: Klucel (hydroxypropylcellulose) (HPC) 98 % of control

C/C(=N\n1c(-c2ccccc2)nc2ccccc2c1=O)c1ccc(C)cc1
inactive: [13] 98 % of control | [14] 96 % of control | [15] 100 % of control

C/C=C/C[P+](c1ccccc1)(c1ccccc1)c1cccc2ccccc12
inactive: dose: 25.0 mg/kg/injection, schedule: Q04DX002 (ip), vehicle: saline with Tween-80 94 % of control

C=COC(=O)Sc1c(Cl)c(Cl)c(Cl)c(Cl)c1Cl
inactive: dose: 50.0 mg/kg/injection, schedule: Q01DX001 (ip), vehicle: saline 100 % of control | [5] 97 % of control | [6] 103 % of control | [7] 92 % of control

Cc1nc2ccccc2nc1CBr
inactive: dose: 3.2 mg/kg/injection, schedule: Q01DX009 (ip), vehicle: Klucel (hydroxypropylcellulose) (HPC) 103 % of control | dose: 6.3 mg/kg/injection, schedule: Q01DX009 (ip), vehicle: Klucel (hydroxypropylcellulose) (HPC) 100 % of control | [1] 105 % of control | dose: 12.5 mg/kg/injection, schedule: Q04DX003 (ip), vehicle: saline with Tween-80 98 % of control | [2] 97 % of control | dose: 25.0 mg/kg/injection, schedule: Q04DX003 (ip), vehicle: saline with Tween-80 89 % of control | [3] 102 % of control | dose: 50.0 mg/kg/injection, schedule: Q04DX003 (ip), vehicle: saline with Tween-80 98 % of control

CC1([N+](=O)[O-])COP(=O)(O)OC1 (stereo not given)
inactive: [6] 90 % of control | [7] 97 % of control
